Where no end group is shown, it is not given here. [ ]: non-standard residue; d: D form.
Key:
[1] = test system: porcine left anterior descending coronary artery; test: Blood vessel contraction measurement
Description: Dissected porcine hearts (260-390 g) were transported from local slaughterhouse to the laboratory in ice-cold Krebs-Henseleit solution (119 mM NaCl, 23.8 mM NaHCO3, 3 mM KCl, 1.14 mM NaH2PO4, 1.63 mM CaCl2, and 16.5 mM glucose). Left anterior descending coronary artery and great cardiac vein were isolated. Part of each blood vessel was used immediately after Isolation for contraction assays while part of it was kept frozen in liquid nitrogen for the membrane preparation. In some experiments blood vessels in which endothelium was mechanically removed were used. The same procedure was used also for the preparation of human umbilical blood vessels; umbilical cords were obtained from Obstetric Clinic of Ljubljana Clinical Center, Slovenia.
The measurements were performed as already described (20). Rings (5 mm wide) of blood vessels were cut and mounted into 10 ml tissue chamber filled with Krebs-Henseleit solution (37° C.; pH=7.4) which was oxygenated with the mixture of ^95% O2 and 5% CO2. Initial tension of 50 mN was applied and after equilibration 30 mM KCl was added to obtain stable Isometric contraction. The presence of endothelium was verified with substance P. After washing out of KCl and substance P and after the equilibration of the system was restored, test peptide was added into the tissue chamber and blood vessel contraction was recorded.

[2] = test system: pancreatic islets; test: Insulin release from isolated pancreatic islets; format: cell-based, rat
Description: Effects of the peptides on insulin secretion were assessed in pancreatic islets from male Wistar rats weighing 200-250 g. Islets were isolated aseptically by colagenase digestion, and then cultured overnight at 37° C. in RPMI 1640 culture medium supplemented with 10% heat-inactivated fetal calf serum. After culturing, analysis of insulin secretion was performed by incubation at 37° C. for 1 h in batches of 3 islets, each in 300 μl of Krebs-Ringer bicarbonate buffer with 10 mM Hepes and 2 mg/ml bovine serum albumin, pH 7.4. The incubation medium contained either 3.3 or 16.7 mM glucose, with or without peptide. In one experimental series, batches of 5×10^5 Rin m5F cells were incubated under similar conditions, except that glucose was omitted from the medium. Aliquots of the incubation medium were taken for radioimmunoassay of Insulin. Insulin secretion is expressed as IU insulin/islet/h and IU insulin/5×10^5 cells/h, respectively. Statistical significance was evaluated with the Student's t-test with p<0.05 regarded as significant

[3] = test system: N2A mouse neuroblastoma cells; test: Cellular internalisation assay of fluorescein-labelled APP and PS peptides; format: cell-based; conditions: for cellular internalisation / cellular localisation: 10 μM, 37°; for cellular internalisation: 60 min
Description: Mouse neuroblastoma cells, N2A, were cultivated in Dulbecco's minimal essential medium with Glutamax-I, supplemented with 10% (v/v) fetal bovine serum, penicillin (100 U/ml) and streptomycin (100 μg/ml).
The cells used for Internalisation were seeded out on round glass coverslips in 24well plates. One day post seeding, the cells were semi confluent, and the medium was changed to serum-free medium. The fluorescein-labelled peptides were added, with a final concentration of 10 μM. After 60 min of incubation at 37°, the cells were washed 3 times with 1 ml of Hepes-Krebbs-Ringer-(HKR) buffer and fixed with 3% paraformaldehyde solution in phosphate-buffered saline solution (PBS) for 10 minutes. The cells were then washed 3 times with 1 ml of HKR-buffer, and the coverslips were mounted and sealed for microscopy studies.
The cell type used for the internalisation assays with the fluorescein'tagged peptides was N2A mouse neuroblastoma cells. This cell-line is commonly used in association with Alzheimer's disease studies, and serves as a good model cell-line for these internalisation assays where peptides derived from proteins involved in Alzheimer's disease were examined. These Internalisation assays were performed at 37° C., therefore the internalisation by endocytosis cannot be excluded.

[4] = In vivo effect of GOP on insulin release and blood glucose level; parameters: species or system Wistar rats
Description: Healthy male Wistar rats, weighing approximately 250 g, were fasted over-night. After an initial blood sample obtained by incision of the distal tail vein (0 min), GOP (M528, 100 nmol/kg; n=4) was injected intraperitoneally, followed by another i.p. injection of glucose (1 g/kg). Control rats (n=4) were injected with saline and glucose. Additional blood samples were taken from the tail vein after 10 and 30 min. Blood glucose levels were determined by a glucose oxidase method and plasma insulin levels by radioimmunoassay.

[5] = test system: human Bowes melanoma cells; test: Cellular penetration of biotin-labelled peptide; format: cell-based
Description: The medium containing serum was exchanged for a serum-free medium and water solution of the peptide was added directly into the medium to reach the concentration of 10 μM. A negative control was always used, because living cells all the time have some biotin inside. To control cells pure water instead peptide solution were added, and further handled alike all other. The cells were incubated for 1 h at 37° C. or 4° C. in 5% CO2 enriched air. The cells were washed three times with PBS, fixed and permeabilised with methanol for 10 min at −20° C., washed again with PBS and Incubated for 1 h in a 5% (w/v) solution of fat-free milk in PBS in order to decrease non-specific binding. The peptides were visualised by staining with 0.1 μM streptavidin-FITC in the same solution for 1 hour at room temperature. The cell nuclei were visualised by staining with DNA with Hoechst 33258 (0.5 μg/ml) for 5 min, thereafter the coverslips were washed 3 times with PBS and mounted in 20% glycerol in PBS. The images were obtained by Zeiss Axioplan 2 microscope (Carl Zeiss Inc., Germany).

[6] = test system: Bowes cells; test: Peptide uptake in attached Bowes cells, fluorescence in cell lysate; format: cell-based, human; conditions: Fluoresceinyl peptide, 5 μM, 30 min, 37° C.
Description: Cells were detached with trypsin (Invitrogen, Sweden), dissolved in culture media and centrifuged (1000×g for 10 min at RT). The cells were resuspended, counted and aliqoted in HKR on Ice, 300 000 cells/tube. Abz-labelled peptide was incubated for 15 and 30 min together with the cells in suspension, on a shaking 37° C. water bath. To stop the uptake or outflow, trypsin solution was added for 3 min. The cells were spun down at 1000×g for 10 min at 4° C. The pellets were resuspended in HKR for fluorescence detection, or for the outflow samples, incubated again with peptide-free HKR. Fluorescence was read at 320/420 nm on a Spectramax Gemini XS (Molecular Devices, Calif.). The intracellular concentrations were calculated from a standard curve of Abz-labelled peptides. […] Additionally, a varianty of the same assay was applied: the cells were seeded in a 24well plate at a density of 100 000 cells/well, the day before. Cells are incubated at 5 μM peptide concentration for 30 min at 37° C. Trypsin treated, washed and lysed in hydrochloric acid. The fluorescence was measured as described for the suspension assay.
Human melanoma cells Bowes, were cultured in MEM using standard cell culturing techniques, and seeded at density of 100 000 cells/well in 24 well-plates the day before experiments were conducted.

[7] = test system: N2A cells; format: cell-based, mouse
[8] = test system: LoVo cells; test: Internalisation of biotinylated selCPPs, fluorescence microscopy; format: cell-based, human
Description: One aspect of the present invention thus comprises a method for screening the cellular uptake of a broad variety of CPPs in vitro, wherein cells are grown on glass cover slips to suitable, such as 50%, density, whereupon the media is changed to serum free and a blotinylated peptide solution is added. The cells are then incubated, washed, fixed and the peptides are visualised by staining with, e.g. avidin-FITC, or streptavidin-TRITC, and the cell nuclei are counterstained, e.g. with Hoechst. Images are preferably obtained with a fluorescence microscope and evaluated.
FIG. 5. Example of inactivated selCPP. Internalisation of YTA-2 (A) compared to YTA-2 ps (B) In LoVo cells, both biotynilated peptides detected by TRITC-avidin at 37° C.
The cells were grown on round glass cover slips (12 mm, GTF, Sweden) in a 24-well plate to approximately 50% confluence. The media was changed to serum free and the biotinylated peptide solutions were added. The cells were incubated for 30 min at 37 or 4° C. The cells were washed twice with PBS, fixed with 4% paraformaldehyde solution 15 min at room temperature (dark) and then permeabilised in 30 mM HEPES buffer containing 0.5% w/v Triton X-100, 3 min on Ice. Sites for unspecific binding were blocked In PBS containing 3% (w/v) bovine serum albumin, overnight at 4° C. The peptides were visualised by staining with avidin-FrTC or streptavidin-TRITC (Molecular Probes, the Netherlands). The cell nuclei were stained with Hoechst 33258 (0.5 μg/ml) for 5 min, after which the cover slips were washed 3 times with PBS and mounted in 25% glycerol in PBS. The images were obtained with a Leica DM IRE2 fluorescence microscope (Leica Microsystem., Sweden) and processed in PhotoShop 6.0 software (Adobe Systems Inc., CA) (See e.g. FIG. 38-40).

## COc1ccc2c(c1)CC[C@@H]1[C@@H]2CC[C@]2(C)[C@@H](NCCCCCCN3C(=O)C=CC3=O)CC[C@@H]12 [Peptide U73122]
[1]; 30 μM
  effect on tonus of the artery: did not affect tonus
[1]; 30 μM, 16 μM M511
  effect on M511-induced contraction after posterior administration: did not modify blood vessel contraction
[1]; 30 μM, added 30 minutes prior to 16 μM M511
  decrease of the effect of M511: more than 50%

## IAIAKLAA amide (IAIAKLAA-NH2) [GOP11]
[2]; 10 μM peptide
  Insulin release at 16.7 mM glucose: inh−
[2]; 100 μM peptide
  Insulin release at 3.3 mM glucose: inh−
  Insulin release at 16.7 mM glucose: inh−−

## IAIAKLKA amide (IAIAKLKA-NH2) [GOP4]
[2]; 10 μM peptide
  Insulin release at 16.7 mM glucose: inh−−
[2]; 100 μM peptide
  Insulin release at 3.3 mM glucose: inh−
  Insulin release at 16.7 mM glucose: inh−

## IATVIFITLVMLKKK [APP (712-726) V717F mutant]
[3]
  aggregation on addition to the 24-well plate: formed aggregates
  cellular internalisation: do not reveal any no uptake

## IATVIVITLVMLKKK [APP (712-726) WT]
[3]
  aggregation on addition to the 24-well plate: formed aggregates
  cellular internalisation: do not reveal any no uptake

## IVIAKLAA amide (IVIAKLAA-NH2) [GOP5]
[2]; 10 μM peptide
  Insulin release at 16.7 mM glucose: inh−
[2]; 100 μM peptide
  Insulin release at 3.3 mM glucose: no
  Insulin release at 16.7 mM glucose: no

## IVIAKLKA amide (IVIAKLKA-NH2) [GOP]
[4]; 100 nmol/kg i.p. + glucose 1 g/kg, after 10 min, vs control rats p<0.05
  plasma insulin: increased significantly
[4]; 100 nmol/kg i.p. + glucose 1 g/kg, at 10 min, vs control rats p<0.02
  blood glucose levels: significantly lower
[4]; after 30 min
  insulin and glucose levels vs control rats: no differences
[2]; 10 μM GOP, 3.3 mM glucose, p<0.001
  stimulation of insulin release: 5 fold
[2]; 10 μM peptide
  Insulin release at 16.7 mM glucose: stim+
[2]; 100 μM peptide
  Insulin release at 3.3 mM glucose: no
  Insulin release at 16.7 mM glucose: stim++
[2]; 1 and 10 FM GOP, 16.7 mM glucose
  stimulation of insulin release: 4 fold

## IVIAKLKANLMCKTCRLAK-amide (IVIAKLKANLMCKTCRLAK-NH2; cysteine pairing not given here) [Peptide M569]
[5]; 37° C. and 4° C.
  cellular penetration: temperature independent penetration
[5]; Bowes cells, 37° C.
  cellular localisation: both cytosolic and plasma membrane localisation

## IVIAKLRA amide (IVIAKLRA-NH2) [GOP3]
[2]; 10 μM peptide
  Insulin release at 16.7 mM glucose: stim+
[2]; 100 μM peptide
  Insulin release at 3.3 mM glucose: stim++
  Insulin release at 16.7 mM glucose: stim++

## IVVSKLKA amide (IVVSKLKA-NH2) [GOP16]
[2]; 10 μM peptide
  Insulin release at 16.7 mM glucose: no
[2]; 100 μM peptide
  Insulin release at 3.3 mM glucose: no
  Insulin release at 16.7 mM glucose: no

## KKAAQIRSQVMTHLRVI [APP (521-536)]
[3]
  cellular localisation: both in the nucleus and the membrane
  cellular internalisation: has cell-penetrating abilities

## LRSWRVIIRNGQR [LRSW-3]
[6]
  % of added fluorescence in cell lysate: 1.9%

## LRSWVISRSIRKAA [LRSW-1]
[6]
  % of added fluorescence in cell lysate: 1.4%

## MANLGYWLLALFVTMWTDVGLCKKRPKP [mouse PrPC(1-28)]
[7]
  cargo delivery: ability to carry a cargo avidin into cells
  cell-penetrating activity: is indeed a CPP
  cellular localization: perinuclear localization

## SGESLAY-YTAIAWVKAFIRKLRK (SGESLAYYTAIAWVKAFIRKLRK) [YTA-2ps]
[8]
  Comment (staining/localisation): bind the plasma
[6]
  % of added fluorescence in cell lysate: 3.5%

## Sar^1-Thr^8-angiotensin II
[1]; 45 μM antagonist
  effect on contraction induced by M511: unable to affect
  effect on contraction induced by angiotensin II: able to revert

## TP10 [reference compound]
[6]
  % of added fluorescence in cell lysate: 1.8%

## Transportan [reference compound]
[6]
  % of added fluorescence in cell lysate: 10.5%

## VATKSVSVFYTRK [presenilin-1 (97-109) deletion analogue]
[3]
  cellular localisation: mostly localised in the cytosole
  cellular internalisation: showed cell-penetrating abilities

## VVLYKYRCYKVI [presenilin-1 (151-162)]
[3]
  cellular internalisation: Identical increase in fluorescence

## all-D-(IVIAKLKA) amide ([dI][dV][dI][dA][dK][dL][dK][dA]-NH2; N-terminus assumed; SMILES CC[C@@H](C)[C@@H](N)C(=O)N[C@@H](C(=O)N[C@@H](C(=O)N[C@H](C)C(=O)N[C@H](CCCCN)C(=O)N[C@H](CC(C)C)C(=O)N[C@H](CCCCN)C(=O)N[C@H](C)C(N)=O)[C@H](C)CC)C(C)C) [GOP6]
[2]; 10 μM peptide
  Insulin release at 16.7 mM glucose: inh−
[2]; 100 μM peptide
  Insulin release at 3.3 mM glucose: stim+
  Insulin release at 16.7 mM glucose: no

## angiotensin: angiotensin II, AT1 receptor agonist
[1]; 1 μM
  contraction effect compared with 30 mM KCl: almost the same as the effect of 30 mM KCl

From US20080234183A1, “Cell Penetrating Peptides” (priority 2002, published 2008)
